In US6436924B1, “Antihistamine leukotriene combinations” (ASTA Medica AG, priority 2000, dated 2002):

Test system: nasal mucosal permeability in actively sensitized and topically provoked brown Norway rats
Test: Rhinitis model: nasal mucosal permeability (Evans Blue plasma extravasation) after ovalbumin provocation
Format: in vivo
From the text: The following pharmacological investigation describes the action of azelastine and montelukast on their own and in combination on a rhinitis model on brown Norway rats. The brown Norway rats were actively sensitized by double i.p. injection of a suspension of ovalbumin and aluminum hydroxide in physiological saline solution on two successive days. Three weeks after sensitization, a catheter was tied into the trachea of the animals in orthograde manner under sodium thiopental anesthesia to maintain the respiration of the animals and a further catheter was advanced in a retrograde manner through the trachea up to the internal opening of the choanas for the perfusion of the nasal cavities and fixed. The nasal perfusate can thus trickle out through the nasal cavities and be accepted by a fraction collector. The test substances were either suspended in Tylose (montelukast) or dissolved in physiological saline solution (azelastine) and injected intraperitoneally 60 min before allergen provocation. PBS was perfused through the nasal cavity for 30 min using a roller pump (perfusion rate 0.5 ml/min) to rinse mucus away from the nose. In the case of topical application, the test substances are added to the perfusate in molar concentration and the solution is perfused through the nose for 30 min before allergen provocation. The plasma marker Evans Blue (1 ml/animal each of a 1% strength solution in PBS) was then injected into the jugular vein. The perfusion was collected during a 15 min break. The allergen provocation (challenge) was then carried out by perfusion of the nasal cavity with a solution of ovalbumin in PBS (10 mg/ml of ovalbumin in PBS) for 60 min, during which the perfusate was collected in the fraction collector in 15 min fractions. The total amount of the samples/animal was 5. The samples were centrifuged and then applied to microtiter plates and measured at a wavelength of 620 nm using the Digiscan photometer. The blank values were automatically subtracted. The course of action over 60 min was calculated using an AUC program. The substance action of the preparation group was calculated in % against vehicle controls.
An increased mucosal permeability after allergen provocation is to be assessed as a sign of the release of messengers such as histamine and leukotrienes. After antigen contact, this phenomenon occurs even in allergic people and is manifested by increased fluid secretion and nasal blockage.

[1] = 0.1 mg/kg i.p., 60 min before allergen provocation
[2] = 1 mg/kg i.p., 60 min before allergen provocation

**Q.** `O=C(O)[C@@H](c1ccc(OCc2ccc3ccccc3n2)cc1)C1CCCC1` [Bay X 1005] was tested. Which “Inhibitory action in % (nasal mucosal permeability)” value (“Inhibitory action in %” for short) [1] did it give?
**A.** Its value is 31%.

**Q.** With `CN1CCCC(n2nc(Cc3ccc(Cl)cc3)c3ccccc3c2=O)CC1` (centres unmarked) [Azelastine] as the compound, how does the “Inhibitory action in %” value (0.01 mg/kg i.p., 60 min before allergen provocation) read?
**A.** Its value is 11%.

**Q.** And the “Inhibitory action in %” value [1]?
**A.** Its value is 39%.

**Q.** And the “Inhibitory action in %” value (0.3 mg/kg i.p., 60 min before allergen provocation)?
**A.** The value was 42%.

**Q.** What about the “Inhibitory action in %” value [2] of the same compound?
**A.** The value was 47%.

**Q.** What about the “Inhibitory action in %” value (topical application in the perfusate, 0.003 mmol/l) of the same compound?
**A.** The value was 3%.

**Q.** And the “Inhibitory action in %” value (topical application in the perfusate, 0.01 mmol/l)?
**A.** Its value is 40%.

**Q.** And the “Inhibitory action in %” value (topical application in the perfusate, 0.03 mmol/l)?
**A.** Its value is 60%.

**Q.** What about the “inhibition of the mucosal plasma extravasation” value (topical application, concentrations of 0.003 to 0.03 μmol/l) of the same compound?
**A.** Its value is “strong inhibition”.

**Q.** With `CC(C)(O)c1ccccc1CC[C@@H](SCC1(CC(=O)O)CC1)c1cccc(/C=C/c2ccc3ccc(Cl)cc3n2)c1` [Montelukast] as the compound, how does the “Inhibitory action in %” value [1] read?
**A.** The value was 7%.

**Q.** And the “Inhibitory action in %” value [2]?
**A.** The value was 26%.

**Q.** And the “Inhibitory action in %” value (3 mg/kg i.p., 60 min before allergen provocation)?
**A.** Its value is 39%.

**Q.** What about the “Inhibitory action in %” value (10 mg/kg i.p., 60 min before allergen provocation) of the same compound?
**A.** Its value is 44%.

**Q.** And the “Inhibitory action in %” value (30 mg/kg i.p., 60 min before allergen provocation)?
**A.** The value was 58%.

**Q.** For `COc1ccc2c(c1)c(O)nn2Cc1ccc(OCc2ccc3ccccc3n2)cc1.Cl.Cl` [AWD 23-115, 1-[4-(quinolin-2-ylmethoxy)benzyl]-5-methoxy-1H-indazol-3-ol dihydrochloride], which “dose-dependent inhibition of the vascular permeability” value (dose range of 0.03 to 10 mg/kg i.p.) is on record?
**A.** The value was 37-54%.

**Q.** What about the “Inhibitory action in %” value (topical application in the perfusate, 0.1 mmol/l) of the same compound?
**A.** Its value is 12%.

**Q.** What about the “Inhibitory action in %” value (topical application in the perfusate, 0.3 mmol/l) of the same compound?
**A.** The value was 32%.

**Q.** What about the “Inhibitory action in %” value (topical application in the perfusate, 1 mmol/l) of the same compound?
**A.** Its value is 49%.

**Q.** What about the “inhibition of the vascular permeability” value (topical application, 0.3 μmol/l) of the same compound?
**A.** Its value is 32%.

**Q.** What about the “inhibition of the vascular permeability” value (topical application, 1 μmol/l) of the same compound?
**A.** Its value is 49%.
